Results from PubChem BioAssay (NCI).
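Following 48 hours of exposure in 96-well plates, responses at five concentrations were used to interpolate endpoints linearly. GI50 marks 50% less growth. At the TGI there is no net growth.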

Columns and labels:
Assay in all cases: NCI anticancer screen, dose series, 48 h
BT-549 breast = test system: BT-549 breast
HS 578T breast = test system: HS 578T breast
MCF7 breast = test system: MCF7 breast
MDA-MB-435 = test system: MDA-MB-435
NCI/ADR-RES ovarian = test system: NCI/ADR-RES ovarian

Structure (SMILES)	GI50 (BT-549 breast)	TGI (BT-549 breast)	GI50 (HS 578T breast)	TGI (HS 578T breast)	GI50 (MCF7 breast)	TGI (MCF7 breast)	GI50 (MDA-MB-435)	TGI (MDA-MB-435)	GI50 (NCI/ADR-RES ovarian)	TGI (NCI/ADR-RES ovarian)
Cn1cc(-c2ccc3c(c2)ncn3-c2ccc(CC(=O)Nc3cc(C(C)(C)C)on3)cc2)cn1	1.49 µM	13.2 µM	0.187 µM	1.46 µM	1.55 µM	> 52 µM	2.55 µM	> 100 µM	2.23 µM	> 35.1 µM
C/C(=N\NC(=S)Nc1ccccc1)c1ccccn1	1.87 µM	13.9 µM	0.0857 µM	38.4 µM	0.0148 µM	11.8 µM	0.67 µM	4.28 µM	0.0469 µM	4.58 µM
COc1ccc(C2=NN(c3ccc(S(N)(=O)=O)cc3)C(c3ccc(Cl)cc3)C2)c(O)c1 (stereo unspecified)	4.07 µM	13.6 µM	3.93 µM	19.5 µM	2.08 µM	8.66 µM	3.26 µM	13.8 µM	3.98 µM	21.1 µM
C=C(CNCCc1ccc(O)cc1)[C@@H]1CC[C@]2(CO)CC[C@]3(C)[C@H](CC[C@@H]4[C@@]5(C)CCC(NCCO)C(C)(C)[C@@H]5CC[C@]43C)[C@@H]12 (stereo partly specified)	1.5 µM	3.15 µM	1.69 µM	3.85 µM	0.4 µM	1.76 µM	1.51 µM	2.97 µM	2.09 µM	4.88 µM
CCN1C(=O)N(CC)C2C1NN=c1s/c(=C\c3ccc([N+](=O)[O-])cc3)c(=O)n12 (stereo unspecified)	1.55 µM	16.5 µM	0.328 µM	> 72.5 µM	0.315 µM	> 100 µM			0.396 µM	> 45.2 µM
Cc1ccc2c(c1)/C(=N\N=C/c1cn(C(C)C)c3ccccc13)C(=O)N2	3.58 µM	> 100 µM	10.6 µM	> 100 µM	0.504 µM	> 100 µM	2.16 µM	10.3 µM	73 µM	> 100 µM
c1ccc(CNc2nc(Nc3ccc(-c4nc5ccccc5[nH]4)cc3)c3cn[nH]c3n2)cc1	2.03 µM	5.27 µM	2.45 µM	8.22 µM	1.95 µM	6.35 µM	1.97 µM	5.15 µM	2.22 µM	5.99 µM
C=C1CCC2C3(C)COC(c4cccc(Cl)c4)OC3CCC2(C)C1/C=C/C1=CCOC1=O (stereo unspecified)	6.21 µM	> 100 µM	7.42 µM	> 100 µM	3.8 µM	> 100 µM	9.68 µM	> 100 µM	6.06 µM	> 100 µM
CC1(C)CCC(CN2CCN(c3ccc(C(=O)NS(=O)(=O)c4ccc(NCC5CCOCC5)c([N+](=O)[O-])c4)c(Oc4cnc5[nH]ccc5c4)c3)CC2)=C(c2ccc(Cl)cc2)C1	3.13 µM	8.66 µM	2.94 µM	12.2 µM	3.16 µM	14.5 µM	2.07 µM	5.38 µM	5 µM	27.3 µM
CCN(CC)c1ccc(/C=C/C2=[N+](C)c3ccccc3C2(C)C)cc1	0.226 µM	1.96 µM	0.152 µM	20.9 µM	0.307 µM	18.5 µM	0.288 µM	4.91 µM	13.9 µM	> 100 µM
CCOC(=O)/C(=C/c1c(-c2ccccc2)[nH]c2ccccc12)C(=O)c1ccc(Cl)cc1	8.82 µM	> 100 µM	3.73 µM	57.5 µM	2.91 µM	> 100 µM	3.02 µM	> 100 µM	2.69 µM	> 100 µM
OCCC#Cc1ccccc1C#Cc1ccccc1	8.98 µM	22.3 µM	11.9 µM	33.3 µM	22.7 µM	46.5 µM	11.4 µM	23.5 µM	17.9 µM	53.6 µM
Nc1nccc(C#Cc2cncnc2Nc2ccc(OCc3cccc(F)c3)c(Cl)c2)n1	3.15 µM	9.62 µM	6.32 µM	20.5 µM	3.99 µM	8.25 µM	5.36 µM	> 23.8 µM	6.6 µM	> 25 µM
Cn1cc(-c2nonc2-c2cn(C)c3ccc(Br)cc23)c2ccccc21	6.17 µM	> 100 µM			2.83 µM	> 100 µM			3.19 µM	> 100 µM
Cn1cccc1C1CC(=O)N(CCC[Se]C#N)C1=O (stereo unspecified)			2.44 µM	7.33 µM	2.85 µM	14.6 µM	1.78 µM	3.48 µM	2.69 µM	7.85 µM
CN(C)c1ccc(N=C(C#N)c2nc(N)nc(N3CCOCC3)n2)cc1	35 µM	> 100 µM					53.2 µM	> 100 µM	27.1 µM	62.8 µM
Oc1ccc(-c2nc(-c3ccc(F)cc3)c(-c3ccncc3)[nH]2)cc1	17.7 µM	64 µM			19.4 µM	> 100 µM	6.8 µM	35.1 µM	35.6 µM	> 100 µM
